Data from PubChem BioAssay (NCI).
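Interpolation was linear, between the two tested concentrations surrounding the appropriate level; five concentrations were tested over 48 hours in 96-well plates. GI50 marks 50% less growth. At the TGI there is no net growth.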

Legend:
Test in all cases: growth of human tumour cells (NCI), 48 h
[1] = tested on: CCRF-CEM leukemia
[2] = tested on: EKVX NSCLC
[3] = tested on: HCT-116 colon
[4] = tested on: UO-31 renal
[5] = tested on: HT29 colon
[6] = tested on: M14 melanoma
[7] = tested on: HL-60(TB) leukemia
[8] = tested on: HS 578T breast
[9] = tested on: RPMI-8226 leukemia
[10] = tested on: LOX IMVI melanoma
[11] = tested on: PC-3 prostate
[12] = tested on: NCI-H23 lung
[13] = tested on: BT-549 breast
[14] = tested on: SN12C renal
[15] = tested on: SF-539 CNS
[16] = tested on: MDA-MB-468 breast
[17] = tested on: SK-MEL-2 melanoma
[18] = tested on: OVCAR-3 ovarian
[19] = tested on: OVCAR-5 ovarian
[20] = tested on: SK-MEL-28 melanoma
[21] = tested on: SK-OV-3 ovarian
[22] = tested on: OVCAR-4 ovarian
[23] = tested on: A549 NSCLC
[24] = tested on: NCI-H226 lung
[25] = tested on: SW-620 colon
[26] = tested on: HCC-2998 colon
[27] = tested on: T-47D breast
[28] = tested on: A498 renal
[29] = tested on: MOLT-4 leukemia
[30] = tested on: HCT-15 colon
[31] = tested on: SNB-19 CNS
[32] = tested on: HOP-92 NSCLC
[33] = tested on: KM12 colon
[34] = tested on: U251 CNS
[35] = tested on: MALME-3M melanoma
[36] = tested on: ACHN renal
[37] = tested on: DU-145 prostate
[38] = tested on: K-562 leukemia
[39] = tested on: SF-295 CNS
[40] = tested on: SK-MEL-5 melanoma
[41] = tested on: SF-268 CNS
[42] = tested on: MDA-MB-435
[43] = tested on: MDA-MB-231 breast
[44] = tested on: HOP-62 NSCLC
[45] = tested on: CAKI-1 renal
[46] = tested on: UACC-257 melanoma
[47] = tested on: NCI-H460 lung
[48] = tested on: UACC-62 melanoma
[49] = tested on: RXF 393 renal
[50] = tested on: SNB-75 CNS
[51] = tested on: COLO 205 colon
[52] = tested on: SR leukemia
[53] = tested on: TK-10 renal
[54] = tested on: NCI-H522 lung
[55] = tested on: MCF7 breast
[56] = tested on: IGROV1 ovarian
[57] = tested on: 786-0 renal
[58] = tested on: OVCAR-8 ovarian

## Cc1ccc(C(=O)Nc2cc(-n3ccnc3C)cc(C(F)(F)F)c2)cc1C#Cc1cnc2cccnn12
[1]
  GI50: 3.45 µM
  TGI: > 29.3 µM
[2]
  GI50: 6.85 µM
  TGI: > 29.3 µM
[3]
  GI50: 1.31 µM
  TGI: 8.25 µM
[4]
  GI50: 1.13 µM
  TGI: 6.17 µM
[5]
  GI50: 0.848 µM
  TGI: 4.94 µM
[6]
  GI50: 0.924 µM
  TGI: 24.4 µM
[7]
  GI50: 0.257 µM
  TGI: > 29.3 µM
[8]
  GI50: 1.12 µM
  TGI: 7.31 µM
[9]
  GI50: 1.27 µM
  TGI: 15 µM
[10]
  GI50: 0.702 µM
  TGI: 4.35 µM
[11]
  GI50: 4.51 µM
  TGI: 15.3 µM
[12]
  GI50: 1.53 µM
  TGI: 12.2 µM
[13]
  GI50: 3.4 µM
  TGI: 8.39 µM
[14]
  GI50: 0.948 µM
  TGI: 5.97 µM
[15]
  GI50: 0.916 µM
  TGI: 4 µM
[16]
  GI50: 6.89 µM
  TGI: 19.7 µM
[17]
  GI50: 0.84 µM
  TGI: 4.62 µM
[18]
  GI50: 9.25 µM
  TGI: 29.1 µM
[19]
  GI50: 1.27 µM
  TGI: 8.91 µM
[20]
  GI50: 0.898 µM
  TGI: 4.47 µM
[21]
  GI50: 5.64 µM
  TGI: 14.9 µM
[22]
  GI50: 4.51 µM
  TGI: 16.3 µM
[23]
  GI50: 3.01 µM
  TGI: 13.5 µM
[24]
  GI50: 1.23 µM
  TGI: 6.47 µM
[25]
  GI50: 2.43 µM
  TGI: > 29.3 µM
[26]
  GI50: 2.55 µM
  TGI: 11 µM
[27]
  GI50: 4.24 µM
  TGI: 12.6 µM
[28]
  GI50: 3.26 µM
  TGI: 9.74 µM
[29]
  GI50: 2.42 µM
  TGI: > 29.3 µM
[30]
  GI50: 2.44 µM
  TGI: > 29.3 µM
[31]
  GI50: 6.09 µM
  TGI: 19.1 µM
[32]
  GI50: 0.918 µM
  TGI: 4.61 µM
[33]
  GI50: 0.131 µM
  TGI: 24.6 µM
[34]
  GI50: 4.23 µM
  TGI: 13.4 µM
[35]
  GI50: 0.25 µM
  TGI: 1.73 µM
[36]
  GI50: 2.49 µM
  TGI: 6.69 µM
[37]
  GI50: 5.23 µM
  TGI: 23.1 µM
[38]
  GI50: 0.00293 µM
  TGI: > 29.3 µM
[39]
  GI50: 3.13 µM
  TGI: 8.7 µM
[40]
  GI50: 3.33 µM
  TGI: 8.81 µM
[41]
  GI50: 4 µM
  TGI: 16.4 µM
[42]
  GI50: 3.07 µM
  TGI: 14.7 µM
[43]
  GI50: 0.364 µM
  TGI: 3.2 µM
[44]
  GI50: 1.88 µM
  TGI: 9.67 µM
[45]
  GI50: 1.76 µM
  TGI: 6.52 µM
[46]
  GI50: 1.78 µM
  TGI: 8.74 µM
[47]
  GI50: 3.68 µM
  TGI: 10.8 µM
[48]
  GI50: 0.756 µM
  TGI: 4.13 µM
[49]
  GI50: 1.64 µM
  TGI: 6.11 µM
[50]
  GI50: 2.98 µM
  TGI: 8.74 µM
[51]
  GI50: 1.7 µM
  TGI: 15.6 µM
[52]
  GI50: 2.44 µM
  TGI: > 29.3 µM
[53]
  GI50: 4.27 µM
  TGI: 14 µM
[54]
  GI50: 2.74 µM
  TGI: 9.44 µM
[55]
  GI50: 5.06 µM
  TGI: > 29.3 µM
[56]
  GI50: 2.62 µM
  TGI: 23.2 µM
[57]
  GI50: 4.02 µM
  TGI: 11.9 µM
[58]
  GI50: 3.49 µM
  TGI: 11.1 µM
